Some test systems named below: ACHN renal; SF-539 CNS; NCI-H23 lung; SW-620 colon; SK-MEL-2 melanoma; HL-60(TB) leukemia; OVCAR-8 ovarian; SF-268 CNS; HCT-15 colon; HCC-2998 colon.
Experiment in all cases: NCI anticancer screen, dose series, 48 h

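Protocol summary: plate cells (96-well), add compound at 5 concentrations, incubate 48 h, interpolate endpoints linearly. At the GI50, growth is halved. At the TGI there is no net growth.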 Where only a bound is given, the exact number is not on record here.

As for `Cc1ccc(C(=O)CN(/C=C/C(=O)C(F)(F)F)c2ccc(S(N)(=O)=O)cc2)cc1`, the GI50 with ACHN renal is above 100 µM; with SF-539 CNS, above 100 µM; in the test on NCI-H23 lung it was 37.2 µM; in the test on SW-620 colon it was above 100 µM; in the test on SK-MEL-2 melanoma it was above 100 µM; in the test with HL-60(TB) leukemia, 41.1 µM. For the same compound, the GI50 in the test on OVCAR-8 ovarian is 61.2 µM; in the test on SF-268 CNS it was above 100 µM; in the test with HCT-15 colon, 86 µM; in the test on HCC-2998 colon it was above 100 µM. In addition, the TGI in the test on ACHN renal, in the test on SF-539 CNS, with NCI-H23 lung, in the test with SW-620 colon, with SK-MEL-2 melanoma and in the test on HL-60(TB) leukemia was above 100 µM throughout. In addition, the TGI in the test on OVCAR-8 ovarian, in the test with SF-268 CNS, in the test on HCT-15 colon and in the test on HCC-2998 colon was above 100 µM in each case.

With `COc1cc(C=C2C(=O)NC(=O)NC2=O)cc(OC)c1OC`, the TGI in the test on ACHN renal, in the test on SF-539 CNS, in the test on NCI-H23 lung, in the test with SW-620 colon, in the test on SK-MEL-2 melanoma and with HL-60(TB) leukemia was above 100 µM in each case. In addition, the TGI in the test with OVCAR-8 ovarian, in the test on SF-268 CNS, in the test with HCT-15 colon and in the test on HCC-2998 colon was above 100 µM throughout.

For the compound `CN1CCN(CCCOc2ccc3nc(Nc4ccc(Cl)c(C(F)(F)F)c4)ccc3c2)CC1`, the GI50 in the test on ACHN renal is 12.5 µM; with SF-539 CNS it was 13.8 µM; in the test with NCI-H23 lung, 13.9 µM; in the test with SW-620 colon, 8.97 µM; in the test on SK-MEL-2 melanoma, 16.5 µM; in the test with HL-60(TB) leukemia, 13.9 µM. For the same compound, the GI50 in the test on OVCAR-8 ovarian was 16.4 µM; in the test on SF-268 CNS, 14.1 µM; with HCT-15 colon, 3.66 µM; with HCC-2998 colon, 14.8 µM. The TGI in the test on ACHN renal is 32 µM; in the test on SF-539 CNS, 33.3 µM; with NCI-H23 lung, 29.3 µM; with SW-620 colon, 22.1 µM; with SK-MEL-2 melanoma it was 31.6 µM; in the test on HL-60(TB) leukemia, 31.1 µM. Moreover, the TGI in the test with OVCAR-8 ovarian amounted to 32.4 µM; with SF-268 CNS, 30 µM; with HCT-15 colon it was 13.3 µM; in the test with HCC-2998 colon it was 30.4 µM.

For `CC(C)n1nc(-c2cc3cc(O)ccc3[nH]2)c2c(N)ncnc21`, the GI50 with ACHN renal is 0.224 µM; in the test with SF-539 CNS, 0.309 µM; with NCI-H23 lung it was 0.317 µM; in the test with SW-620 colon it was 1.31 µM; with SK-MEL-2 melanoma, 0.229 µM; in the test with HL-60(TB) leukemia, 1.26 µM. The GI50 was 0.314 µM in the test with OVCAR-8 ovarian, 0.224 µM with SF-268 CNS, 0.342 µM in the test with HCT-15 colon and 0.572 µM with HCC-2998 colon. The TGI came to 5.18 µM with ACHN renal; 2.18 µM in the test on SF-539 CNS; 9.19 µM in the test with NCI-H23 lung; 14.2 µM with SW-620 colon; 1.95 µM with SK-MEL-2 melanoma; 5.77 µM with HL-60(TB) leukemia. Moreover, the TGI with OVCAR-8 ovarian came out at 3.21 µM; in the test with SF-268 CNS, 4.78 µM; in the test on HCT-15 colon it was 13.9 µM; in the test on HCC-2998 colon, 17.8 µM.

With `COC1(OC)C2(Cl)C(Cl)=C(Cl)C1(Cl)C1C=CC=CC12` (configuration not stated), the TGI in the test with ACHN renal was above 100 µM; in the test on SF-539 CNS, above 100 µM; in the test on NCI-H23 lung, above 100 µM; in the test on SW-620 colon it was above 100 µM; in the test on SK-MEL-2 melanoma it was 63 µM; in the test with HL-60(TB) leukemia it was above 100 µM. The TGI in the test on OVCAR-8 ovarian, in the test on SF-268 CNS, with HCT-15 colon and in the test with HCC-2998 colon was above 100 µM each time.

In the case of `COc1ccc(/C=C/c2ccnc3ccccc23)c(OC)c1`, the TGI in the test on ACHN renal is above 10 µM; with SF-539 CNS it was above 10 µM; with SW-620 colon it was above 10 µM; in the test on SK-MEL-2 melanoma, above 10 µM; with HL-60(TB) leukemia, 6.91 µM; in the test on OVCAR-8 ovarian, above 10 µM. For the same compound, the TGI in the test on SF-268 CNS, in the test with HCT-15 colon and in the test with HCC-2998 colon was above 10 µM in each case.

With `CCC[CH2][Sn]1([CH2]CCC)[O]CC(CN2CCCC2)[O]1` (configuration not stated), the GI50 with ACHN renal is 17.3 µM; with SF-539 CNS, 16.9 µM; in the test on NCI-H23 lung it was 11.6 µM; in the test with SW-620 colon, 11.5 µM; in the test with SK-MEL-2 melanoma it was 13.8 µM; in the test on HL-60(TB) leukemia, 3.87 µM. Also, the GI50 in the test with OVCAR-8 ovarian was 14.1 µM; in the test with HCT-15 colon, 15.3 µM; in the test with HCC-2998 colon it was 14.3 µM. Also, the TGI in the test on ACHN renal is 31.4 µM; with SF-539 CNS it was 38.9 µM; in the test on NCI-H23 lung, 27.7 µM; in the test on SW-620 colon, 27.6 µM; in the test with SK-MEL-2 melanoma, 27.1 µM; with HL-60(TB) leukemia, 15.2 µM. The values for the TGI with OVCAR-8 ovarian, with HCT-15 colon and in the test with HCC-2998 colon were 29.4 µM, 29.2 µM and 28.5 µM, respectively.

Take `Cc1cccc(NC(=O)/C(=N\NC(C)(C)C)C2NC(=S)NC2=O)c1C` (configuration not stated): the TGI in the test with ACHN renal, in the test on SF-539 CNS, with SW-620 colon, in the test on SK-MEL-2 melanoma, with HL-60(TB) leukemia and in the test on OVCAR-8 ovarian was above 100 µM in each case. The TGI with HCT-15 colon and in the test on HCC-2998 colon was above 100 µM each time.

For `NC(N)=N/N=C(\c1nc2ccc([N+](=O)[O-])cc2[nH]c1=O)C(O)c1ccc([N+](=O)[O-])cc1` (configuration not stated), the TGI in the test with ACHN renal, with SF-539 CNS, in the test with NCI-H23 lung, in the test on SW-620 colon, in the test with HL-60(TB) leukemia and with OVCAR-8 ovarian was above 100 µM throughout. In addition, the values for the TGI with SF-268 CNS, in the test on HCT-15 colon and in the test with HCC-2998 colon were above 100 µM, above 100 µM and 79.8 µM, respectively.

With `Nn1c(=O)n(Cc2ccccc2)n(-c2ccccc2)c1=O`, the TGI in the test on ACHN renal, in the test with SF-539 CNS, in the test on NCI-H23 lung, in the test on SW-620 colon, with SK-MEL-2 melanoma and with HL-60(TB) leukemia was above 100 µM each time. For the same compound, the TGI in the test on OVCAR-8 ovarian, in the test with SF-268 CNS and in the test on HCC-2998 colon was above 100 µM in each case.

`Cn1c2c(c3ccccc31)CC1c3c(c4ccccc4n3C)CC21` (configuration not stated): the TGI in the test with ACHN renal, with SF-539 CNS, with NCI-H23 lung, in the test with SW-620 colon, with HL-60(TB) leukemia and in the test on OVCAR-8 ovarian was above 100 µM in each case. For the same compound, the TGI in the test on SF-268 CNS, with HCT-15 colon and in the test on HCC-2998 colon was above 100 µM throughout.

The record behind these values is PubChem BioAssay (NCI).
